From patent US20070172843A1, “MEK interacting protein 1 as diagnostic and therapeutic target for breast cancer treatment and prevention” (priority 2005, published 2007)
One block for each compound: values may come before it.

What was measured:
ER/MP1 complex = molecular target: T1, ER/MP1 complex (Homo sapiens, UniProt P03372); details: MCF-7 cells pre-treated in absence of E2, then ligand for 2 h; IP with ER or MP1 antibody; FIG. 4
T1 sequence (P03372 1-595): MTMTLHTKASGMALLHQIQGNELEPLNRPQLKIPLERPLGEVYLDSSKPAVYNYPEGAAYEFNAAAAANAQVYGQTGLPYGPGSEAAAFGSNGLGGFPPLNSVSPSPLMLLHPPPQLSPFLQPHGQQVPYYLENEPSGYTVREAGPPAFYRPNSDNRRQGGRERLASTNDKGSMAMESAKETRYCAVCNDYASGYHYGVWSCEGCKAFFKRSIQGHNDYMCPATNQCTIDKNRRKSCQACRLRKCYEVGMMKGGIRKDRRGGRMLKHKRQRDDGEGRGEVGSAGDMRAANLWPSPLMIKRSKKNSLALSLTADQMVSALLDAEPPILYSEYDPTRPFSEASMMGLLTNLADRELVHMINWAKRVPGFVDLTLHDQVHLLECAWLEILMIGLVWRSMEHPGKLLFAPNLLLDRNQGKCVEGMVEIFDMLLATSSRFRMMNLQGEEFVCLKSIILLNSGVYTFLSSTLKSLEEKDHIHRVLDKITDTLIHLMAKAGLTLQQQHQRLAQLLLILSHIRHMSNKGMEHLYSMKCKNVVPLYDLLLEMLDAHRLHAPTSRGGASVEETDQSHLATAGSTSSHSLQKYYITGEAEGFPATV
Procedure: One limitation to inducible expression systems is that proteins are expressed at very high levels, and complexes may form that are not physiologically relevant. […] Cell lysates were prepared and precipitated with either 0-ER (Labvision/NeoMarker) or 0-MP1 (Santa Cruz) antibody and protein G agarose beads.

ER = molecular target: T2, ER (Homo sapiens, UniProt P03372); details: MCF-7 cells, 24 h in medium lacking E2, ligand for 3 h; MP1 vs empty vector; FIG. 5
T2 sequence (P03372 1-595): T1 sequence (P03372 1-595)

MCF-7 cells = test: BrdU incorporation proliferation assay in MCF-7 cells transfected with MP1 expression vector or empty vector; type: cell-based, human; details: ligand for 48 h, BrdU for the final 5 h, FIG. 6
Procedure: The ER has both genomic and non-genomic activities, and its activity in transcription assays may not fully represent its ability to regulate cell proliferation. […] To label proliferating cells, BrdU (which is incorporated into DNA during DNA synthesis) was added to the cultures for the final 5 h of incubation. Cells were then fixed, labeled with a fluorescent anti-BrdU antibody, and the percentage of cells that incorporated BrdU (ie, were proliferating) was determined.

Flag-ER = test: Inducible 3' Flag-ER expression (ARGENT system) in stably transfected MCF-7 derivative, Western blotting; type: cell-based, human; details: treated six hours, Western blot, FIG. 2
Source text: To tightly regulate expression of the Flag-ER gene, the Ariad “ARGENT” inducible gene expression system (25) (www.ariad.com) was used. This system allows for tight and specific regulation of a target gene.
To identify physiologically relevant ER-interacting proteins, the MCF-7 cell line was used. […] First, a stable derivative of MCF-7 in which target genes can be inducibly expressed was constructed. The construction of this cell line and an example of its use have been previously described (27). Next, the 5′ and 3′ Flag-ER constructs were subcloned into the target vector, and these constructs were stably transfected into the MCF-7 derivative described above. […] Stable transfectants containing either 3′ Flag-ER or empty vector were treated as indicated (in FIG. 2) for six hours, and lysates were analyzed by Western blotting (WB) with antibodies to ER, Flag, or Actin.

- co-precipitation of MP1 with ER (ER/MP1 complex formation) (ER/MP1 complex): not
- effect of MP1 co-transfection on ER activity (ERE-Luc) in the presence of ligand (ER): not
Structure (SMILES): C[C@]12CC[C@@H]3c4ccc(O)cc4C[C@@H](CCCCCCCCC[S+]([O-])CCCC(F)(F)C(F)(F)F)[C@H]3[C@@H]1CC[C@@H]2O (some centres unmarked) [ICI, ICI 182,780]

Structure (SMILES): CC/C(=C(\c1ccccc1)c1ccc(OCCN(C)C)cc1)c1ccccc1 [Tam, tamoxifen]
- effect of MP1 overexpression on proliferation (percentage of cells that incorporated BrdU) in the presence of ligand (MCF-7 cells): dramatically increases proliferation

Structure (SMILES): CO[C@H]1[C@@H](O)[C@H](C)C[C@H](C)/C=C/C=C/C=C(\C)[C@@H](c2c[nH]c3c(C)cccc23)C[C@@H]2CC[C@@H](C)[C@@](O)(O2)C(=O)C(=O)N2CCCC[C@H]2C(=O)O[C@H]([C@H](C)C[C@@H]2CC[C@@H](O)[C@H](OC)C2)C[C@H](O)[C@H](C)/C=C(\C)[C@H]1O [AP21967]
- Flag-ER expression from the transfected gene (Flag-ER; cells containing 3' Flag-ER): highly induced
- endogenous ER expression (Flag-ER; vector containing cells): did not alter this expression
